Entries after “also recorded” stand apart in the source; their conditions may differ.
How the values were obtained:
HeLa cells = assay: Effect of compounds on topotecan cytotoxicity (EZ4U test); format: cell-based, human; settings: compound 10 μM in combination with Tpc
Excerpt: (§1) Tdp1 inhibitors are intended to be used in therapeutic cocktails to sensitize tumors to the action of anticancer Top1 poisons. […] To assess the toxicity of the compounds, their effect on the survival of the HeLa cell line (human cervical cancer) was studied using the colorimetric test of metabolic activity of cells EZ4U, which reflects the survival of cells in the presence of the studied compounds. The EZ4U assay is based on the ability of living cells to reduce the colorless tetrazolium salt XTT [sodium 3,3′-{1-(phenylamino)-carbonyl-3,4-tetrazolium) -bis(4-methoxy-6-nitro)-benzene sulfonic acid hydrate] to an orange water-soluble formazan product. This method was used to investigate the intrinsic cytotoxicity of promising inhibitors discovered in the course of this work, as well as the toxicity of their combination with Tpc.
As already mentioned, we expected to increase the efficacy and/or reduce the dosage of Tpc with Tdp1 inhibitors. To do this, we studied the effect of nucleoside derivatives on Tpc cytotoxicity. […] We attribute this to the probable presence of protein targets other than Tdp1 in the cell.
(§2) Cytotoxicity of the compounds was examined on human cell lines HeLa using an EZ4U colorimetric test (Biomedica, Vienna, Austria). The HeLa cell line was obtained from the Russian Cell Culture Collection (RCCC) Institute of Cytology RAS, St. Petersburg, Russia. The cells were grown in DMEM/F12 medium (Gibco, Thermo Fisher Scientific, Waltham, MA, USA), with 1x GlutaMAX (Gibco, Thermo Fisher Scientific, Waltham, MA, USA), 50 IU/mL penicillin, 50 μg/mL streptomycin (MP Biomedicals), and in the presence of 10% fetal bovine serum (Biolot, Saint-Petersburg, Russia) in a 5% CO2 atmosphere. Since lipophilic nucleosides are soluble in DMSO, cells were grown in the presence of 1% DMSO in the control wells. After the formation of a 30–50% monolayer, the tested compounds were added to the medium, and the cell culture was monitored for 3 days. The values were normalized to their own control in each case. At least three independent experiments were carried out. The 50% cytotoxic concentration (CC50) was defined as the compound concentration that reduced the cell viability by 50% when compared to the untreated controls. The CC50 value was determined using OriginPro 8.6.0 software (OriginLab, Northampton, MA, USA). The measurements were carried out in three independent experiments.

[1] = test system: mice ascitic Krebs-2 carcinoma; assay: Antitumor effect of topotecan with compounds in vivo, ascitic Krebs-2 carcinoma model; settings: C57Bl/6 mice; for Tumor mass (ascites weight) and number of tumor cells, combination with Tpc compared to only Tpc: Tpc 1 mg/kg + compound 100 mg/kg i/p once on day 4, 6d p = 0.0018
Excerpt: The effect of compounds 5f, 6c and 6d on the effectiveness of Tpc was studied in vivo on a mice ascitic Krebs-2 carcinoma model. Krebs-2 carcinoma can be transplanted into mice of various genetic constitutions. […] This model combines the advantages of in vitro and in vivo approaches to study the cytotoxic effects of compounds, since ascites cells grow in the environment of the body (in vivo), and intraperitoneal administration of the drug ensures its direct contact with tumor cells (in vitro), bypassing absorption, delivery to the tumor, possible transformations, etc.
During the experiment, mice were injected intraperitoneally with 2 × 10^6 ascites cells, after that a liquid ascites tumor grew at the site of inoculation.
The effect of drugs on the tumor was assessed at the end of the experiment by the weight of the ascitic tumor (the difference in the weight of the mouse with the tumor and after tumor removal), as well as by the number of tumor cells in the ascites.
Three- to four-month-old male and female C57Bl/6 mice (19–21 g) from the breeding colony of the Institute of Cytology and Genetics, SB RAS, Novosibirsk, Russia, were used in the study. The animals were kept on sawdust in plastic cages of 5–7 mice per cage with free access to ground food (“Laboratorkorm”, Moscow, Russia) and tap water. All procedures with the mice were performed in accordance with the international rules for experiments on animals [European Communities Directive (86/609 EEC)].
The experimental tumor model was transplantable Krebs-2 carcinoma obtained from the cell depository of the Institute of Cytology and Genetics SB RAS (Novosibirsk, Russia) and was maintained in mice as a transplanted tumor. Krebs-2 was obtained from epithelial cells of the abdominal wall of a mouse. Krebs-2 carcinoma is nonspecific in its host requirements and can be grafted into mice with any genetic context. With intraperitoneal inoculation, it forms an ascites form.
The antitumor effect was assessed by the weight of the ascites and by the number of tumor cells in ascites. The weight of Krebs-2 ascites was assessed by the difference in the weight of mice before and after the removal of ascites. The number of tumor cells in ascites was determined using a hemocytometer Goryaev camera. In autopsied mice, the weights of liver, lung, heart, kidneys, and spleen were assessed as well as the tumor and body weights.
The animals were treated once in total dose of Tpc 1 mg/kg and Tdp1 inhibitor (5f, 6c or 6d) 100 mg/kg. We started the treatment on the fourth day after the tumor was inoculated, with the expectation that it had just begun to form. […] The animals were euthanized eight days after the transplantation and the compound effect on mice was evaluated by measuring the tumor weight and number of tumor cells in ascites.

human recombinant PARP1 = biological target: T1, human recombinant PARP1 (Homo sapiens, UniProt P09874); assay: PARP1 activity by inclusion of α-[32P]-NAD+ in poly(ADP-ribose); format: biochemical; settings: in the presence of 1 mM compound; read-out: Residual activity of PARP1
T1 construct: made in house
Method: Since it has previously been shown that nucleoside derivatives can inhibit enzymes of the PARP family, we also checked whether the studied compounds were able to inhibit the enzymes PARP1 and PARP2. […] Thus, when using our compounds, one cannot expect side effects from PARP1/2.
Purified human recombinant PARP1/2 [65] and [^32P] NAD^+ [27] were prepared as described earlier. The activity of PARP1/2 was evaluated by the rate of incorporation of the radioactive label into the acid-insoluble reaction product—PAR as described previously.

[2] = Cell culture cytotoxicity assay (EZ4U colorimetric test); format: cell-based; settings: human, HeLa cells
Excerpt: as §1, §2

T1 sequence (P09874 whole entry): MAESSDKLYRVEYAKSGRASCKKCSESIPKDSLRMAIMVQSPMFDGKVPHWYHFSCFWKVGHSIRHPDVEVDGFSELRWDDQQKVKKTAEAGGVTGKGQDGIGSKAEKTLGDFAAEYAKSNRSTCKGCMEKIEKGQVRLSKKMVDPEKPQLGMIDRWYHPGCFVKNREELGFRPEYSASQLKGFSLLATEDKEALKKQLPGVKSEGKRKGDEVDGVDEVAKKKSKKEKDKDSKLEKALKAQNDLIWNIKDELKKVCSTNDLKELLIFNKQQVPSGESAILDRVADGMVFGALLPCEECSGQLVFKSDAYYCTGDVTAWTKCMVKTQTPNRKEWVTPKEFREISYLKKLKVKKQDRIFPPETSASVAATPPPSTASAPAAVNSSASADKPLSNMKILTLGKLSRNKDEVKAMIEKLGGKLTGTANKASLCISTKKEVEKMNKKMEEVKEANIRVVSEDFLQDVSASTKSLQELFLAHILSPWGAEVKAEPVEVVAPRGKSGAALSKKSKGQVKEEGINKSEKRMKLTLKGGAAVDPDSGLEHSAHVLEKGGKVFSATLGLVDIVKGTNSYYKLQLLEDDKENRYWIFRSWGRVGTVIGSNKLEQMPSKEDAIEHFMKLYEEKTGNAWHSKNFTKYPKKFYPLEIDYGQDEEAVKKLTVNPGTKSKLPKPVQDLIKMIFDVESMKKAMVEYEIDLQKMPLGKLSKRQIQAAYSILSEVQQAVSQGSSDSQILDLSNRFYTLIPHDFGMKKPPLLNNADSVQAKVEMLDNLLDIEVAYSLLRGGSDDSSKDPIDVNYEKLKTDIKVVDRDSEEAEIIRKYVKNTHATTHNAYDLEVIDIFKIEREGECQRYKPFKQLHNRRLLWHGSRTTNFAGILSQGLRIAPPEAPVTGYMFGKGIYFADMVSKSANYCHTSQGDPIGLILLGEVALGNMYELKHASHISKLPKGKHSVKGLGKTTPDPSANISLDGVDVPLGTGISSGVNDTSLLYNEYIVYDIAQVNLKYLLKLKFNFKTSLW

Row | Structure (SMILES) | Enhancement of Tpc Cytotoxicity by 10 μM Compounds (HeLa cells) | Tumor mass (ascites weight) and number of tumor cells, combination with Tpc compared to only Tpc [1] | remaining activity at 1000 µM (human recombinant PARP1) | CC50 at 3 days [2] | Tumor mass (ascites weight) and number of tumor cells, compound alone ([1]; compound 100 mg/kg i/p once on day 4, 100 mg/kg)
1 | O[C@@H]1[C@H](O)[C@@H](COC(c2ccccc2)(c2ccccc2)c2ccccc2)O[C@H]1n1cnc2c(NC(c3ccccc3)(c3ccccc3)c3ccccc3)ncnc21 [compound 5f] | 1.7 Times | no sensitizing effect; also recorded: did not result in a reliable decrease | 100 ± 10% | > 100 µM | 
2 | O=C(OC[C@H]1O[C@@H](n2cnc3c(Cl)nc(F)nc32)[C@H](OC(=O)c2ccccc2)[C@@H]1OC(=O)c1ccccc1)c1ccccc1 [compound 6c, 2-Fluoro-6-chloro-9-(2,3,5-tri-O-benzoyl-β-D-ribofuranosyl)purine] | 6.5 Times | did not obtain the sensitizing effect; also recorded: did not result in a reliable decrease | 82 ± 17% | 35 ± 20 µM | 
3 | O=C(OC[C@H]1O[C@@H](n2cnc3c(Cl)nc(Cl)nc32)[C@H](OC(=O)c2ccccc2)[C@@H]1OC(=O)c1ccccc1)c1ccccc1 [compound 6d, 2,6-dichloro-9-(2,3,5-tri-O-benzoyl-β-D-ribofuranosyl)purine] | 4.8 Times | significant decrease; also recorded: synergistic decrease of tumor size | 96 ± 12% | 33 ± 15 µM | did not affect this parameter; also recorded: did not affect tumor growth

Reference: publication PMC9822400, “The Lipophilic Purine Nucleoside—Tdp1 Inhibitor—Enhances DNA Damage Induced by Topotecan In Vitro and Potentiates the Antitumor Effect of Topotecan In Vivo” (Molecules, 2022)
